Where two headings read alike, the source gives them in different places. Marks after values point to notes of the source that are not given here.
Columns and labels:
[1] = target: T1, OCT1 (SLC22A1) (Homo sapiens, UniProt O15245); experiment: in vitro; conditions: pH 7.4
T1 sequence (O15245 1-554): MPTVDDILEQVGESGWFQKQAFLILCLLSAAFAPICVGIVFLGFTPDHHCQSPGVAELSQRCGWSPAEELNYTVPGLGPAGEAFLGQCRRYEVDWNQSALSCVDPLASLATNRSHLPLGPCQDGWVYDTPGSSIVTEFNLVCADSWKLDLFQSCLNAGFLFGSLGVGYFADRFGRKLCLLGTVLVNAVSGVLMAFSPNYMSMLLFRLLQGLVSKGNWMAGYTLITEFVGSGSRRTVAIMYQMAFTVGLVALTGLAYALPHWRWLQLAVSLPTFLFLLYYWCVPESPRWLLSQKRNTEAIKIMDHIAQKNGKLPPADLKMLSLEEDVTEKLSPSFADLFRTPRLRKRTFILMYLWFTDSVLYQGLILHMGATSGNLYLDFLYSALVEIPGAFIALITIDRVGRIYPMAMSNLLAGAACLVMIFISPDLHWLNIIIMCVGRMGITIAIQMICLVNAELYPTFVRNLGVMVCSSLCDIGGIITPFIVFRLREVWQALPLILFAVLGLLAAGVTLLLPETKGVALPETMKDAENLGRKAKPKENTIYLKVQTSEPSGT

[2] = target: T2, OCT2 (SLC22A2) (Homo sapiens, UniProt O15244); experiment: in vitro; conditions: pH 7.4
T2 sequence (O15244 1-555): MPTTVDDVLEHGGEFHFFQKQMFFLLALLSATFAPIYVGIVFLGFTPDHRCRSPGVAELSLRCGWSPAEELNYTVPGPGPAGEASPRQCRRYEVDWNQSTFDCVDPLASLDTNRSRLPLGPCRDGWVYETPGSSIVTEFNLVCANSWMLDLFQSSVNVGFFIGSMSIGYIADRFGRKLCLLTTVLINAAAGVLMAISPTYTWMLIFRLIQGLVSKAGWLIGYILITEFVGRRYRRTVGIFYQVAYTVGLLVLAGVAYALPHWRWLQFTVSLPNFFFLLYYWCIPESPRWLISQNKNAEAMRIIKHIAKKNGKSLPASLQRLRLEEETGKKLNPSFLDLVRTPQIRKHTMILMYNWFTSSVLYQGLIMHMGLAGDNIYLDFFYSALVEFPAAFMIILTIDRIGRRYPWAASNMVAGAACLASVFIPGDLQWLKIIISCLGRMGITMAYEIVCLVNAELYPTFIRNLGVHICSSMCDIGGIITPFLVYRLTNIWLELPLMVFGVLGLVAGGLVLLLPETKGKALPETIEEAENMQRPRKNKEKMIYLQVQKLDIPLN

[3] = target: T3, MATE1 (SLC47A1) (Homo sapiens, UniProt Q96FL8); experiment: in vitro; conditions: pH 7.4
T3 sequence (Q96FL8 1-570): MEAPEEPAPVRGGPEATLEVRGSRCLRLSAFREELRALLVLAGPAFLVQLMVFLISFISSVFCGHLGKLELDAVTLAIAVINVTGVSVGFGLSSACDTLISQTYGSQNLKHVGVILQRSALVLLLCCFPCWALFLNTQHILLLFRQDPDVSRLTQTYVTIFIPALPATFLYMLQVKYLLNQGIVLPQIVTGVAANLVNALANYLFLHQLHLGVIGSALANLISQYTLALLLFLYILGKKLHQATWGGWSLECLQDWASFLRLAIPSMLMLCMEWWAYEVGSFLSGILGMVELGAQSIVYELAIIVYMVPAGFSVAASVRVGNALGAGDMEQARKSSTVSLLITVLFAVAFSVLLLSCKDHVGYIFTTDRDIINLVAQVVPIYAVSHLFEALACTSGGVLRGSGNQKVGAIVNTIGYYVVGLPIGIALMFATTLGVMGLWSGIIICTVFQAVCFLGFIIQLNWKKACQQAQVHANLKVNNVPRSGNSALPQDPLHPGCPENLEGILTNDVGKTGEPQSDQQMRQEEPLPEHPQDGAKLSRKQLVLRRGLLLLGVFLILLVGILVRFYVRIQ

[4] = target: T4, MATE2-K (SLC47A2) (Homo sapiens, UniProt Q86VL8); experiment: in vitro; conditions: pH 7.4
T4 sequence (Q86VL8 1-566 isoform Q86VL8-3): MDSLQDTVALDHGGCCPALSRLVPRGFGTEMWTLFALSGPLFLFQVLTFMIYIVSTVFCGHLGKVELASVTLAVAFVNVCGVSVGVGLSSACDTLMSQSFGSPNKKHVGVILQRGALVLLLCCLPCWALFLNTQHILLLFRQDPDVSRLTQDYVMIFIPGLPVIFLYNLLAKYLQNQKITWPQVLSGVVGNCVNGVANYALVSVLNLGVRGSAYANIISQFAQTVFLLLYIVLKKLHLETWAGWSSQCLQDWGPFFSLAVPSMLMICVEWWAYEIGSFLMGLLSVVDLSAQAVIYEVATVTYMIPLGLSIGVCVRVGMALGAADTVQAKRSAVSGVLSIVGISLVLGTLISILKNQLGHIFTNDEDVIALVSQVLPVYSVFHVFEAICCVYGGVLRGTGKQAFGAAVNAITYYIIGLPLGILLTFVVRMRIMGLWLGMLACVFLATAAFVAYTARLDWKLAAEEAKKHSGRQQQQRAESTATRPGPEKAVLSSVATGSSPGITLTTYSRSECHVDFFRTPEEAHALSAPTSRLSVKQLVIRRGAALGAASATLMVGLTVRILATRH

[5] = target: T5, OCT3 (SLC22A3) (Homo sapiens, UniProt O75751); experiment: Cellular uptake into OCT3-overexpressing HEK293 cells vs EV control cells (HPLC-MS/MS); conditions: for stereoselectivity OCT3 (uptake ratio of the more strongly transported enantiomer divided by that of the other): label = favoured enantiomer; for uptake ratio OCT3 (transporter-overexpressing cells over EV control cells): mean (±SD, N): 2 min, HEK293
T5 sequence (O75751 1-556): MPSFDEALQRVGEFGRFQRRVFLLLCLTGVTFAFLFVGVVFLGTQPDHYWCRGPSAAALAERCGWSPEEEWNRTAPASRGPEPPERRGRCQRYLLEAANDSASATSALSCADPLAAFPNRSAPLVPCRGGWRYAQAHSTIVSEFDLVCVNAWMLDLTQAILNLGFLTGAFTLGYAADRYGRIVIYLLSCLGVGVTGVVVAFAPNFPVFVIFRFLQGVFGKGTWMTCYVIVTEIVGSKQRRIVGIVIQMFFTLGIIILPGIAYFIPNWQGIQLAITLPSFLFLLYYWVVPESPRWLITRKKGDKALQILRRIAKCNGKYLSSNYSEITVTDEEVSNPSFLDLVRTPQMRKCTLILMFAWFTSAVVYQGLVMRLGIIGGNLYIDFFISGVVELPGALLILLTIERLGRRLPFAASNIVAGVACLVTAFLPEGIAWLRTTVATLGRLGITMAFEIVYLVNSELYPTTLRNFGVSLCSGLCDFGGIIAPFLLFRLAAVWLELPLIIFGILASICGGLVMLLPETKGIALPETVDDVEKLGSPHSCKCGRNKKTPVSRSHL

[6] = target: T2, OCT2 (SLC22A2); experiment: Cellular uptake into OCT2-overexpressing HEK293 cells vs EV control cells (HPLC-MS/MS); conditions: for higher v max of one enantiomer over the other, OCT2: label = enantiomer with higher v max
[7] = target: T1, OCT1 (SLC22A1); experiment: Cellular uptake into OCT1-overexpressing HEK293 cells vs EV control cells (HPLC-MS/MS)
[8] = target: T3, MATE1 (SLC47A1); experiment: Cellular uptake into MATE1-overexpressing HEK293 cells vs EV control cells (HPLC-MS/MS)
[9] = target: T4, MATE2-K (SLC47A2); experiment: Cellular uptake into MATE2-K-overexpressing HEK293 cells vs EV control cells (HPLC-MS/MS)
[10] = system: OCTs 1–3; set-up: method as in Sala-Rabanal et al. (2013); conditions: rodent orthologues, ref Sala-Rabanal et al. (2013), cited from earlier work
[11] = target: T6, OCT2 (Homo sapiens, UniProt O15244); set-up: method as in Higashi et al. (2014); conditions: ref Higashi et al. (2014); cited from earlier work
T6 sequence (O15244 1-555): T2 sequence (O15244 1-555)

[12] = target: T2, OCT2 (SLC22A2); conditions: pH 7.4
[13] = OCT2, net uptake, Michaelis–Menten
[14] = 2.5 μM substrate (§), 2 min, HEK293
[15] = 2.5 μM substrate (§), 2 min, HEK293, listed as (S)-(+)-2-amino-1-Pentanol
[16] = 2.5 μM substrate, 1 min, 30 mM NH4Cl preincubation, HEK293
[17] = 2.5 μM substrate, 1 min, 30 mM NH4Cl preincubation, HEK293, listed as (S)-(+)-2-amino-1-Pentanol
[18] = uptake ratio ≥2 = notable transport
[19] = 2.5 μM substrate (§), 2 min, HEK293, listed as L-tert-leucinol
[20] = 2.5 μM substrate, 1 min, 30 mM NH4Cl preincubation, HEK293, listed as L-tert-leucinol

C[C@@H](N)CCO [(R)-3-aminobutan-1-ol]
selectivity ratio at 2 min [1]: 1.1
selectivity ratio at 2 min [2]: 2.7
selectivity ratio at 1 min [3]: 1.9
selectivity ratio at 1 min [4]: 1.4

CC(C)C[C@@H](N)CO [(R)-(−)-leucinol]
selectivity ratio at 1 min [3]: 1.1
stereoselectivity OCT3 (uptake ratio of the more strongly transported enantiomer divided by that of the other) [5]: 1.4-fold for (R)

CCC[C@@H](N)CO [(R)-(−)-2-amino-1-pentanol]
selectivity ratio at 2 min [1]: 1.1
selectivity ratio at 1 min [3]: 1.5
selectivity ratio at 1 min [4]: 1.2
K m (±SEM) [6, 13]: 198 (±67) μM
v max (±SEM) [6, 13]: 1453 (±179) ^a pmol/mg protein/min

CCCC[C@@H](N)CO [(R)-(−)-2-amino-1-hexanol]
selectivity ratio at 2 min [1]: 1.1
selectivity ratio at 1 min [3]: 1.2
selectivity ratio at 1 min [4]: 1.3
K m (±SEM) [6, 13]: 59 (±11) μM
v max (±SEM) [6, 13]: 1342 (±84) ^b pmol/mg protein/min
higher v max of one enantiomer over the other, OCT2 [6]: 1.7 fold

CCC[C@H](N)CO [(S)-(+)-2-amino-1-pentanol]
selectivity ratio at 2 min [2]: 1.2
uptake ratio OCT1 (transporter-overexpressing cells over EV control cells): mean (±SD, N) [7, 14]: 1.0 (0.3, 4)
uptake ratio OCT1 (transporter-overexpressing cells over EV control cells): mean (±SD, N) [7, 15]: 1.0
uptake ratio OCT2 (transporter-overexpressing cells over EV control cells): mean (±SD, N) [6, 14]: 6.0 (1.7, 4) ^b
uptake ratio OCT2 (transporter-overexpressing cells over EV control cells): mean (±SD, N) [6, 15]: 6.0
K m (±SEM) [6, 13]: 245 (±83) μM
v max (±SEM) [6, 13]: 2342 (±290) ^a pmol/mg protein/min
K m (±SEM) ([6]; OCT2, net uptake, Michaelis–Menten, listed as (S)-2-amino-1-pentanol): 245 µM
higher v max of one enantiomer over the other, OCT2 [6]: 1.6 fold
uptake ratio OCT3 (transporter-overexpressing cells over EV control cells): mean (±SD, N) ([5]; 2.5 μM substrate (§)): 1.1 (0.2, 4)
uptake ratio OCT3 (transporter-overexpressing cells over EV control cells): mean (±SD, N) ([5]; 2.5 μM substrate (§), listed as (S)-(+)-2-amino-1-Pentanol): 1.1
stereoselectivity OCT3 (uptake ratio of the more strongly transported enantiomer divided by that of the other) [5]: 1.1-fold for (S)
uptake ratio MATE1 (transporter-overexpressing cells over EV control cells): mean (±SD, N) [8, 16]: 1.1 (0.1, 4)
uptake ratio MATE1 (transporter-overexpressing cells over EV control cells): mean (±SD, N) [8, 17]: 1.1
uptake ratio MATE2K (transporter-overexpressing cells over EV control cells): mean (±SD, N) [9, 16]: 1.5 (0.4, 4)
uptake ratio MATE2K (transporter-overexpressing cells over EV control cells): mean (±SD, N) [9, 17]: 1.5

NCCCCNCCCN [spermidine]
K m of spermidine transport ([10]; OCT-expressing oocytes): 1000 µM
increase in spermidine uptake by OCT-expressing oocytes compared to non-injected oocytes [10]: up to 3 fold
K m of spermidine transport [11]: 6760 µM
substrate activity at OCT1 (in words) [7, 18]: did not show any substrate activity
substrate activity at OCT2 (in words) [6, 18]: did not show any substrate activity
substrate activity at OCT3 (in words) [5, 18]: did not show any substrate activity
substrate activity at MATE1 (in words) [8, 18]: did not show any substrate activity
substrate activity at MATE2-K (in words) [9, 18]: did not show any substrate activity

CC(C)NC(C)C [diisopropylamine]
CLint (±SEM) [12]: 20 (±12) μL/mg protein/min
uptake ratio OCT1 (transporter-overexpressing cells over EV control cells): mean (±SD, N) [7]: 1.4 (0.3, 4)
uptake ratio OCT2 (transporter-overexpressing cells over EV control cells): mean (±SD, N) [6]: 5.1 (1.2, 4) ^b
v max (±SEM) [6]: 1388 (±157) pmol/mg protein/min
uptake ratio OCT3 (transporter-overexpressing cells over EV control cells): mean (±SD, N) ([5]; 10 μM substrate): 1.1 (0.2, 4)
uptake ratio MATE1 (transporter-overexpressing cells over EV control cells): mean (±SD, N) [8]: 0.8 (0.02, 3) ^b
uptake ratio MATE2K (transporter-overexpressing cells over EV control cells): mean (±SD, N) [9]: 1.2 (0.1, 3)

CC(C)(C)[C@@H](N)CO [(R)-(−)-tert-leucinol]
selectivity ratio at 1 min [3]: 1.3
selectivity ratio at 1 min [4]: 1.5

CC(C)[C@H](N)CO [L-valinol]
selectivity ratio at 2 min [2]: 1.04
selectivity ratio at 1 min [4]: 1.5
K m (±SEM) [6, 13]: 362(±156) μM
v max (±SEM) [6, 13]: 4970 (±967) pmol/mg protein/min
higher v max of one enantiomer over the other, OCT2 [6]: 2.0 fold
stereoselectivity OCT3 (uptake ratio of the more strongly transported enantiomer divided by that of the other) [5]: 1.04-fold for (S)

CC(C)(C)[C@H](N)CO [L-tert-Leucinol]
selectivity ratio at 2 min [1]: 1.3
selectivity ratio at 2 min [2]: 1.4
uptake ratio OCT1 (transporter-overexpressing cells over EV control cells): mean (±SD, N) [7, 14]: 1.4 (0.4, 3)
uptake ratio OCT1 (transporter-overexpressing cells over EV control cells): mean (±SD, N) [7, 19]: 1.4
uptake ratio OCT2 (transporter-overexpressing cells over EV control cells): mean (±SD, N) [6, 14]: 10.8 (1.4, 3) ^b
uptake ratio OCT2 (transporter-overexpressing cells over EV control cells): mean (±SD, N) [6, 19]: 10.8
uptake ratio OCT3 (transporter-overexpressing cells over EV control cells): mean (±SD, N) ([5]; 2.5 μM substrate (§)): 2.1 (0.5, 3)
uptake ratio OCT3 (transporter-overexpressing cells over EV control cells): mean (±SD, N) ([5]; 2.5 μM substrate (§), listed as L-tert-leucinol): 2.1
stereoselectivity OCT3 (uptake ratio of the more strongly transported enantiomer divided by that of the other) [5]: 1.9-fold for(S) ^a
uptake ratio MATE1 (transporter-overexpressing cells over EV control cells): mean (±SD, N) [8, 16]: 0.7 (0.2, 3)
uptake ratio MATE1 (transporter-overexpressing cells over EV control cells): mean (±SD, N) [8, 20]: 0.7
uptake ratio MATE2K (transporter-overexpressing cells over EV control cells): mean (±SD, N) [9, 16]: 0.9 (0.3, 3)
uptake ratio MATE2K (transporter-overexpressing cells over EV control cells): mean (±SD, N) [9, 20]: 0.9

CC(C)[C@@H](N)CO [D-valinol]
selectivity ratio at 2 min [1]: 1.3
selectivity ratio at 1 min [3]: 1.4
K m (±SEM) [6, 13]: 329 (±190) μM
v max (±SEM) [6, 13]: 2488 (±573) pmol/mg protein/min
